Results reported in US5714467A, “Antibacterial and antimalarial hybrid peptides” (The Rockefeller University, priority 1993, dated 1998).

Legend:
Porphyromonas gingivalis = assay: anaerobic microdilution broth assay (NCCLS M11-T2), oral pathogen; assay type: cell-based
Description: (§1) Antimicrobial susceptibility testing was performed using a microdilution broth assay according to the guidelines of the National Committee for Clinical Laboratory Standards (NCCLS) Document M11-T2 (NCCLS, 1989).
(§2) One-half strength Brain Heart Infusion (BHI) (BBL catalog number 11059) supplemented with hemin and menadione is used in the microtiter plates for diluting the peptide stock solution and for diluting the bacterial inoculum.
(§3) Inoculum is prepared by culturing bacteria from an overnight plate in 5 ml of supplemented BHI. The next day the overnight broth culture is read on a BECKMAN® DU-64 spectrophotometer at 630 nm and diluted with supplemented BHI until an absorbance of 0.02 is reached which represents approximately 1×10^6 colony-forming units per milliliter (CFUs/ml). This culture is used to inoculate the microtiter plates. A sample of the inoculating culture is diluted in supplemented BHI through a series of 1:10 dilutions and the 10^-5 and 10^-6 dilutions are plated, incubated 48 hours at 35°-37° C. anaerobically, and counted to verify inoculum size.
(§4) The microtiter plates are incubated anaerobically for 48 hours at 35°-37° C. in a COY® anaerobic chamber Type A. Plates are never stacked more than four high.

S. aureus = assay: microdilution broth assay (NCCLS M7-A1), aerobes; assay type: cell-based, Staphylococcus aureus; conditions: 14 strains
Description: (§5) Antimicrobial susceptibility testing was performed using a microdilution broth assay according to the guidelines of the National Committee for Clinical Laboratory Standards (NCCLS) Document M7-A1 (NCCLS. 1990).
(§6) The peptide powder as an acetate salt was weighted on an analytical balance and transferred to a polypropylene tube. A solution was prepared at a concentration of 1.024 mg/ml by dissolving the powder in autoclaved (121° C., 20 psi, 20 minutes) deionized water. The peptide solution was used immediately, stored for up to ten days at 4° C., or stored long-term at -70° C. in 1 ml aliquots in polypropylene cryovials.
(§7) Mueller-Hinton broth (MHB) (BBL catalog number 11443) was used in the microtiter plates for diluting the peptide stock solution and for diluting the bacterial inoculum. […]
(§8) Inoculum was prepared by taking a sample of bacteria from a 16-20 hours plate culture and inoculating into 5 ml of (MHB) (BBL catalog number 95834) to an absorbance reading of approximately 0.02 at 600 nm (Ab600) on a BECKMAN® DU-64 spectrophotometer. The culture was incubated at 35°-37° C. with shaking (New Brunswick incubator shaker Model G25) and the growth monitored spectrophotometrically until it reached mid-logarithmic phase (Ab600 of approximately 0.06). This absorbance represents approximately 1×10^8 colony-forming units per milliliter (CFUs/ml). […]

p. aeruginosa = assay: microdilution broth assay (NCCLS M7-A1), aerobes; assay type: cell-based, Pseudomonas aeruginosa; conditions: 13 strains
Description: as §5, §6, §7, §8

Group A Streptococcus = assay: microdilution broth assay (NCCLS M7-A1), aerobes; assay type: cell-based; conditions: 15 strains
Description: as §5, §6
(§9) Mueller-Hinton broth (MHB) (BBL catalog number 11443) was used in the microtiter plates for diluting the peptide stock solution and for diluting the bacterial inoculum. MBH 5 ml prepared tubes (BBL catalog number 95834) were used to culture an overnight plate of bacteria to the logarithmic phase of growth for inoculating the microtiter plates.
(§10) Inoculum was prepared by taking a sample of bacteria from a 16-20 hours plate culture and inoculating into 5 ml of (MHB) (BBL catalog number 95834) to an absorbance reading of approximately 0.02 at 600 nm (Ab600) on a BECKMAN® DU-64 spectrophotometer. The culture was incubated at 35°-37° C. with shaking (New Brunswick incubator shaker Model G25) and the growth monitored spectrophotometrically until it reached mid-logarithmic phase (Ab600 of approximately 0.06). This absorbance represents approximately 1×10^8 colony-forming units per milliliter (CFUs/ml). The culture was then diluted to approximately 1×10^6 CFUs/ml in autoclaved MHB (BBL catalog number 11443) to produce the inoculum. A sample of the inoculating culture was diluted in 3 mM phosphate buffer (pH 7.2) through a series of 1:10 dilutions and the 10^-4 and 10^-5 dilutions were plated, incubated overnight at 35°-37° C., and counted the next day to verify inoculum size.
(§11) Microtiter plates (Corning manufacturer number 2585096) were prepared with the use of the BECKMAN® Biomek 1000 (Beckman Instruments, Somerset, N.J.) automated laboratory workstation in combination with manual techniques. The microtiter plate was filled with diluent broth using the Biomek 1000 instrument. Peptide stock solution was manually added to the top drug well of the microtiter plate using a Rainin Pipetman Model P-200. The peptide was serially diluted in two-fold dilutions using the Biomek 1000 instrument. One hundred microliters of the standardized bacterial inoculum was added to every well of the microtiter plates (except the blanks) using an Eppendorf Repeater Model 4780 pipet equipped with an Eppendorf 5 ml combitip (catalog number 22 26 130-4).
(§12) The final concentrations of peptide solution in the wells ranged from 0.25 ug/ml to 256 ug/ml. The final concentration of bacteria in the wells was 1-5×10^5 CFUs/ml. The final volume in the wells was 200 μl.
(§13) The microtiter plates were incubated overnight (16-20 hours) at 35°-37° C. in a Precision mechanical convection oven incubator Model 30M. Plates were not stacked more than four high.

Acinetobacter = assay: microdilution broth assay (NCCLS M7-A1), aerobes; assay type: cell-based; conditions: 12 strains
Description: as §5, §6, §9, §10, §11, §12, §13

Xanthomonas = assay: microdilution broth assay (NCCLS M7-A1), aerobes; assay type: cell-based; conditions: 12 strains
Description: as §5, §6, §9, §10, §11, §12, §13

Streptococcus pneumoniae = assay: microdilution broth assay (NCCLS M7-A1), aerobes; assay type: cell-based; conditions: 11 strains
Description: as §5, §6, §9, §10, §11, §12, §13

s. epidermidis = assay: microdilution broth assay (NCCLS M7-A1), aerobes; assay type: cell-based; conditions: 12 strains
Description: as §5, §6, §9, §10, §11, §12, §13

C. albicans ATCC 14053 = assay: microdilution broth assay, dermatophytes (yeast for comparison); assay type: cell-based, Candida albicans; conditions: 48 hours at 30° C., M3 broth
Description: (§14) Antimicrobial susceptibility testing was performed using a microdilution broth assay as with the aerobes.
(§15) Antibiotic medium 3 (M3) (BBL catalog number 10932) was used in the microtiter plates for diluting the peptide stock solution and for diluting the bacterial inoculum.
(§16) The dermatophyte cultures were grown on Potato Dextrose Agar for one week. A one centimeter square of growth is teased from the leading edge of the fungus and placed in 2 ml of sterile water in a screw-capped glass tube with glass beads (2 mm) on the bottom. The tubes were vortexed for 20 seconds each and placed in a shaker incubator (New Brunswick incubator shaker Model G25) at 37° C. for 30 minutes. Tubes were removed from the shaker incubator and allowed to settle for 10 minutes. The supernatant was read on a BECKMAN® DU-64 spectrophotometer at 530 nm for percent transmission and adjusted with M3 broth to a transmission of 65%. This culture was then diluted 1:10 in M3 broth for inoculating the microtiter plates.
(§17) The microtiter plates were incubated for 48 hours at 30° C. in a PRECISION® mechanical convection oven incubator Model 4. Plates are never stacked more than four high.
(§18) Candida albicans, a yeast was used for comparison.

T. rubrum ATCC 36262 = assay: microdilution broth assay, dermatophytes; assay type: cell-based; conditions: 48 hours at 30° C., M3 broth
Description: as §14, §15, §16, §17, §18

T. mentagrophytes = assay: microdilution broth assay, dermatophytes; assay type: cell-based; conditions: M3 broth
Description: as §14, §15, §16, §17, §18

E. coli ATCC 25922 = assay: anaerobic microdilution broth assay (NCCLS M11-T2), standard organism; assay type: cell-based, Escherichia coli; conditions: standard in the P. gingivalis test, anaerobic 48 hours
Description: as §1, §2, §3, §4
E. coli ATCC 25922 was used as a standard.

Substance: Gly-Ile-Gly-Lys-Phe-Leu-Lys-Lys-Ala-Lys-Lys-Gly-Ile-Gly-Ala-Val-Leu-Lys-Val-Leu-Thr-Thr-Gly-Leu
- MIC, P. gingivalis strain 9-14K-1 (Porphyromonas gingivalis; strain 9-14K-1, anaerobic 48 hours): 16 µg/mL
- MIC, P. gingivalis strain 381 (Porphyromonas gingivalis; strain 381, anaerobic 48 hours): 64 µg/mL
- MIC, P. gingivalis strain 2561 (Porphyromonas gingivalis; strain 2561, anaerobic 48 hours): 16 µg/mL
- MIC, P. gingivalis strain A7A1-28 (Porphyromonas gingivalis; strain A7A1-28, anaerobic 48 hours): 32 µg/mL
- MIC, P. gingivalis strain ATCC 33277 (Porphyromonas gingivalis; strain ATCC 33277, anaerobic 48 hours): 64 to 128 µg/mL
- MIC, P. gingivalis strain ESO-127 (Porphyromonas gingivalis; strain ESO-127, anaerobic 48 hours): 4 to 8 µg/mL
- MIC, P. gingivalis strain FAY-19M-1 (Porphyromonas gingivalis; strain FAY-19M-1, anaerobic 48 hours): 16 µg/mL
- MIC, P. gingivalis strain VAG-1 (Porphyromonas gingivalis; strain VAG-1, anaerobic 48 hours): 64 µg/mL
- MIC, P. gingivalis strain VAG-4 (Porphyromonas gingivalis; strain VAG-4, anaerobic 48 hours): 32 µg/mL
- MIC, P. gingivalis strain W-50 (Porphyromonas gingivalis; strain W-50, anaerobic 48 hours): 32 µg/mL
- MIC RANGE, S. aureus (S. aureus): 2 to 4 µg/mL
- MIC RANGE, p. aeruginosa (p. aeruginosa): 2 to 32 µg/mL
- MIC RANGE, Group A Streptococcus (Group A Streptococcus): 2 to 4 µg/mL
- MIC RANGE, Acinetobacter (Acinetobacter): 2 to 4 µg/mL
- MIC RANGE, Xanthomonas (Xanthomonas): 2 to 8 µg/mL
- MIC RANGE, Streptococcus pneumoniae (Streptococcus pneumoniae): 8 to 16 µg/mL
- MIC RANGE, s. epidermidis (s. epidermidis): 2 to 4 µg/mL
- MIC, C. albicans ATCC 14053 (C. albicans ATCC 14053): 64 µg/mL
- MIC, T. rubrum ATCC 36262 (T. rubrum ATCC 36262): 256 µg/mL
- MIC, T. mentagrophytes ATCC 4808 (T. mentagrophytes; strain ATCC 4808, 48 hours at 30° C.): 16 µg/mL
- MIC, T. mentagrophytes ATCC 18748 (T. mentagrophytes; strain ATCC 18748, 48 hours at 30° C.): 16 µg/mL
- MIC, E. coli ATCC 25922 (E. coli ATCC 25922): 8 µg/mL
